Experimental findings from article PMC10764104, “Discovery of Molecular Glue Degraders via Isogenic Morphological Profiling” (ACS Chemical Biology, 2023) are described below.

This series concerns RKO WT cells. Conditions: 48 h, up to 13.5 μM tested. The text has this: Prior to screening the compound library in the isogenic CPA, we assessed their CRBN binding affinities using a fluorescence-polarization-based competition assay with recombinant DDB1-CRBN and the fluorescent tracer 16 (Figure S2). […] We also assessed the cytotoxicity of the CRBN binders in RKO wild-type (WT) cells to determine the appropriate treatment concentration.
Assessment of gene expression and essentiality in RKO WT
Public datasets on the transcriptome and essentiality of a protein‐encoding gene for RKO (cell line ID: ACH‐000943) were retrieved from DepMap Public 23Q2 (https://depmap.org/portal/, accessed on 14 August 2023). […]
Fluorescence Polarization‐based competition assay
Fluorescence Polarization assays were performed in 384‐well, Low Volume, Black, Round Bottom, Polystyrene Nonbinding surface Microplates (Corning, #4514). […] Fluorescence polarization values were determined with a PerkinElmer Envision reader with FITC FP dual mirror and FITC FP 480 excitation filter and FITC FP 535 emission filters. Fluorescence polarization values of a 10x serial dilution (10 nM to 100 µM) of the test compounds were determined in triplicates. EC50 values were calculated with GraphPad Prism software (version 10.0.2) with a non‐linear fit function (4PL sigmoidal curve fit) adjusting the bottom constrain to the FP value of free tracer. […]

For `CN(Cc1ncc(C2CC2)o1)S(=O)(=O)Oc1ccc(Nc2ccc3c(c2)C(=O)N(C2CCC(=O)NC2=O)C3=O)cc1` (stereo not shown) [FL2-14], the “cytotoxicity (CellTiter-Glo)” value is “not cytotoxic”.
